# Laboratory results from PubChem BioAssay AID179 (DTP/NCI, 2004).
# Activity calls are given as the source filed them.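 The calls were made as follows: active = compounds giving half or more protection of infected cells from virus-caused growth loss, again on retest; inactive = the rest.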 *1 amine or outer side, *2 acyl side, *3 side chain or, on linkers, in order; H or OH if unused. Where a SMILES comes first, the peptide text is derived from it. [ ]: non-standard residue; d: D form. The star is where a group is joined. X3 = CC(=O)N(C)SCC(N[*:1])C(=O)[*:2]; X20 = CC(=O)N(C)SCC(N*)/C(O)=N\O; Cbz = O=C(OCc1ccccc1)*; Bn = c1ccc(C*)cc1; For = O=C*
# Tested on: CEM cells HIV-1 protection, formazan growth assay
# Test: NCI AIDS Antiviral Assay
# Conditions: for IC50: measured here: growth of uninfected CEM cells
# Method in brief: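 Human CEM cells, uninfected and HIV-1-infected, received five drug concentrations, and growth was read by soluble formazan assay. Compounds giving at least 50% protection were retested; reproducible 100% protection defined confirmed active.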
SMILES,EC50 [µM],IC50 [µM],outcome
COc1ccc(N2C(=O)C3c4[nH]c5cc(C)ccc5c4C4CCC(C(C)(C)C)CC4C3C2=O)cc1 (centres undefined),> 200,105,
O=C(O)CSCCOCCSCC(=O)O,> 708,> 708,
Cc1ccc(NC(=O)CC2SC(=Nc3cccc(Cl)c3C)NC2=O)cc1 (centres undefined),> 240,110,
c1ccc2c(c1)c1ccccc1c1nccnc21,> 200,69.2,
Cn1c(=O)cc(CC(=O)C(=O)O)c2ccccc21,> 200,148,
COc1ccc(CNc2nc3c(NC(C)=O)cc(C(F)(F)F)cc3nc2-c2ccccc2)cc1OC,> 10.5,> 10.5,
N#CC(C#N)=CC=C1c2ccccc2Sc2ccccc21,> 18.2,> 18.2,
CC(=O)c1sc2[n+](c1C)C(=O)/C(=C\c1ccccc1Cl)S2,31.6,110,
O=c1[nH]c2ccccc2nc1/C=C/n1c(=S)[nH]c2ccccc21,> 200,> 200,
COc1ccccc1C1=NC(C)(C)CO1,> 1230,> 1230,
C=CCn1c2c(c3ccccc3c1=O)C(=O)c1ccccc1-2,> 91.2,> 91.2,
COc1cc2c3c(c1OC)-c1cc4c(cc1CC3(C#N)N(C(=O)c1ccccc1)CC2)OCO4 (centres undefined),,,inactive
CCOC(=O)N1CCN(P(=O)(Nc2ccc3nc(NC(=O)OC)[nH]c3c2)Oc2ccccc2)CC1 (centres undefined),> 135,53.7,
O=C1CCCC2=C1CC1=C(CCCC1=O)N2c1ccccc1,> 100,> 100,
N#CC1CCCCC1NC1(C#N)CCCCC1 (centres undefined),> 195,> 195,
COC(=O)/C(=C/c1c[nH]c2ccccc12)NC=O,> 200,> 200,
COc1cc2oc(-c3ccc(O)cc3)cc(=O)c2c(OC)c1O,> 200,> 200,
O=C(Nc1ccc(NC2=NCCN2)cc1)c1ccc(C(=O)Nc2ccc(NC3=NCCN3)cc2)c([N+](=O)[O-])c1,> 200,15.1,
O=C1NS(=O)(=O)c2ccccc21,> 1200,> 1200,
CCOC(=O)/C(=C(/N)C1OC(COC(c2ccccc2)(c2ccccc2)c2ccccc2)C2OC(C)(C)OC12)C1CC(=O)N(C)C1=O (centres undefined),> 200,11.7,
CC(=O)N(C)SCC(NC(=O)C(Cc1ccccc1)NC(=O)OCc1ccccc1)C(=O)NC(Cc1ccccc1)C(=O)NC(Cc1cn(C=O)c2ccccc12)C(=O)NC(CCCCNC(=O)OCc1ccccc1)C(=O)NC(C(=O)NC(CSN(C)C(C)=O)/C(O)=N\O)C(C)OCc1ccccc1 (centres undefined) (Cbz-F[X3]FW(For)K(Cbz)T(Bn)-X20; configuration not given here),,,inactive

SMILES,EC50 [µM],IC50 [µM],outcome
N#CC(C(=N/O)/C(=N\O)C(C#N)c1ccccc1)c1ccccc1 (centres undefined),> 794,123,
CCOC(=O)/C=C1\C(=O)N(Cc2ccccc2)c2ccccc21,> 200,1,
CC1(C)C2CC(=O)C1(C)C(OCc1ccccc1)C2Br (centres undefined),> 200,> 100,
CCOP(=O)(OCC)/C(=C\n1c(=S)[nH]c2cc(C)ccc21)C(=O)OC,> 200,> 200,
O=C1OC(=O)c2c1c(-c1ccccc1)nc1ccccc21,> 107,> 107,
CC(C)=CCC[C@@H](C)C1=C(Nc2ccccc2Cl)C(O)=C(C)C(=O)C1=O,> 200,1.55,
O=C1/C(=C/c2ccc3c(c2)OCO3)CCC/C1=C\c1ccc2c(c1)OCO2,> 7.59,> 7.59,
O=Cc1ccccc1OCCOc1cc(OCCOc2ccccc2C=O)c(OCCOc2ccccc2C=O)cc1OCCOc1ccccc1C=O,> 1.41,> 1.41,
O=C1OCC(C2CCCCC2)C(Br)=C1Br (centres undefined),> 200,56.2,
NC(=S)N/N=C/c1ccc(O)cn1,> 661,1.12,
CC(=O)c1c2c(cc3c1CC1(Cc4cc5c(cc4C1=O)CCC5)C3)CCC2 (centres undefined),> 200,13.5,
O=C(O)C1CCC(c2ccc(F)cc2F)N1 (centres undefined),> 200,> 200,
CC1C(c2ccccc2)=Nn2c(=O)n(-c3ccccc3)c(=O)n21 (centres undefined),> 200,> 200,
C[N+](C)(C)CCCCCc1c2nc(c(CCCCC[N+](C)(C)C)c3ccc([nH]3)c(CCCCC[N+](C)(C)C)c3ccc([nH]3)c(CCCCC[N+](C)(C)C)c3nc1C=C3)C=C2,> 100,57.5,
CC(C)(C)C(=O)C(C(=O)c1ccccc1)C(=O)C(C)(C)C,> 200,> 200,
CC1(C)CCC[C@@]2(C)C1CC[C@H]1CC(O)C3(C)CCC12C3 (some centres undefined),> 12.3,> 12.3,
O=C(NC1CCCCC1)/C(=C\c1ccc(/C=C(/NC(=O)c2ccccc2)C(=O)NC2CCCCC2)cc1)NC(=O)c1ccccc1,> 200,120,
CC(=O)c1c(O)c2ccc(Cl)cc2[nH]c1=O,> 200,33.9,
O=C1c2c(n(Cc3ccccc3)c(=O)n2Cc2ccccc2)C(=O)N1Cc1ccccc1,> 17,> 17,
Cc1cc(C)c(S(=O)(=O)N(CCCCCN)OCCCN)c(C)c1,> 200,30.2,
O=c1/c(=C/c2cccc3ccccc23)sc2nc3ccccc3n12,> 30.2,> 30.2,

SMILES,EC50 [µM],IC50 [µM],outcome
Cc1cc(C)n2c(C)nnc2c1,> 1550,1120,
Cc1cc(O)cc2c1O[C@@]1(C)CCC3[C@@]4(C)CC[C@H](O)C(C)(C)C4CC[C@@]3(C)[C@H]1C2 (some centres undefined),,,inactive
COC(=O)C(NC(=O)C(C)NC(=O)OC(C)(C)C)C(C)O (centres undefined),,,inactive
CC(=O)O[C@@]1(C)C[C@@H](O)[C@]2(O)C=CO[C@@H](OC3OC(CO)C(O)C(O)C3O)[C@@H]21 (some centres undefined),,,inactive
COc1ccccc1NC(=O)C(CC(C(=O)Nc1ccccc1OC)/C(C)=N/Nc1ccc([N+](=O)[O-])cc1[N+](=O)[O-])/C(C)=N/Nc1ccc([N+](=O)[O-])cc1[N+](=O)[O-] (centres undefined),> 9.12,> 9.12,
CC(C)=N.[C-]#[O+].[C-]#[O+].[C-]#[O+].[C-]#[O+].[C-]#[O+].[W],> 13.8,> 13.8,
CC1C(c2ccc(F)cc2)c2cc3c(cc2OC1N1CCCC1)OCO3 (centres undefined),> 200,129,
COc1cc(O)c2c(c1)C(=O)C=C(Cl)C2=O,,,inactive
COc1cc(OC)c2c(C)cc(=O)oc2c1,> 200,> 200,
O=C(O)CN(c1ccccc1)S(=O)(=O)c1ccc(Cl)cc1,,,inactive
CN1CCCC(=O)C1CC[C@H]1C(=O)CCCN1C (some centres undefined),> 269,> 269,
CCOC(=O)C12CC1(C(=O)OCC)C1CCC2C1 (centres undefined),> 200,> 200,
O=C1CC2C(CC3OC(=O)C4C3C23COC4(O)C(O)C3)c2occc21 (centres undefined),> 200,3.24,
CC(=O)OCC1(C)ON=C2CCCCC21 (centres undefined),> 1170,> 1170,
O=C(Sc1c(-c2ccccc2)c(=O)n(-c2ccccc2)c(=S)n1-c1ccccc1)c1ccco1,> 200,34.7,
CCOC(=O)/C=C/c1ccc([N+](=O)[O-])cc1,> 32.4,> 32.4,
Cc1nc2c(nc1C)C(=O)C(Cl)=CC2=O,,,inactive
N#CSCc1cccc(Nc2cc(=O)[nH]c(=O)[nH]2)c1,> 200,25.7,
NC12CCC(N)(c3ccccc31)c1ccccc12,> 200,> 200,
